Results as given in patent publication US20260083704A1, “LXR MODULATORS WITH BICYCLIC CORE MOIETY FOR TREATING DYSLIPIDEMIAS” (OrsoBio, Inc., priority 2022, published 2026).

Legend:
[1] = tested on: DIO mice; assay: Two-step hyperinsulinemic-euglycemic clamp in DIO mice; assay type: in vivo; conditions: 5 mg/kg once daily oral
Excerpt: Data are shown as mean±SD. N=5-11 animals per group. *p≤0.05, **p≤0.01, ***p≤0.001, ****p≤0.0001 vs. vehicle, unless otherwise indicated; ^#p≤0.05 pioglitazone vs. vehicle. Repeated measures Two-way ANOVA with Dunnett's multiple comparisons test (FIG. 7A, FIG. 7D), Two-way ANOVA with Dunnett's multiple comparisons test (FIG. 7B, FIG. 7C). EDL=extensor digitorum longus, GIR=glucose infusion rate, HGP=hepatic glucose production, iWAT=inguinal white adipose tissue.
The effects of chronic dosing of Compound 21/3 and Compound pre-6/3 were evaluated in DIO mice and HFD-fed ZDF rats, respectively. Briefly, C57BL/6 mice were fed a HFD for 16 weeks prior to treatment with Compound pre-6/3 (5 mg/kg) or pioglitazone (30 mg/kg; positive control) once daily by oral gavage. After four weeks of treatment, a two-step hyperinsulinemic-euglycemic clamp along with the infusion of radiotracers to monitor glucose disposal and hepatic glucose production was performed. […] These changes were associated with a reduction in hepatic glucose production in the Compound pre-6/3-treated mice, more evident during the 8 mU/kg/min insulin infusion (FIG. 7B).

[2] = tested on: HFD-fed (DIO) mice; assay: Intestinal lipid absorption (3H-triolein tracer) in HFD-fed mice; assay type: in vivo; conditions: 5 mg/kg oral gavage
Excerpt: (§1) Data are shown as mean±SD. N=5-8 animals per group. *p≤0.05, **p≤0.01, ***p≤0.001, ****p≤0.0001 vs. vehicle, unless otherwise indicated; ^#p≤0.05 pioglitazone vs. vehicle Kruskal-Wallis (non-parametric One-Way ANOVA) test with Dunn's multiple comparisons test (FIG. 4A, FIG. 4B, FIG. 4D), repeated measures two-way ANOVA with Dunnett's multiple comparisons test (FIG. 4C), two-way ANOVA with Sidak's multiple comparisons test (FIG. 4E), Mann-Whitney test (FIG. 4F-G).
In addition to the effects of Compound 21/3 on hepatic DNL, the observed reductions in plasma TG in these models may be mediated by reduced intestinal TG absorption, as well as increased clearance of TG-containing lipoproteins from the circulation. […] Further, LXR inhibition with Compound pre-6/3 reduced intestinal lipid absorption as measured by reduced uptake of ^3H-labelled triolein tracer in HFD-fed mice (FIG. 4E). Additionally, Compound 21/3 reduced hepatic expression and plasma levels of ANGPTL3, an inhibitor of LPL, the predominant enzyme involved in the clearance of TG-rich lipoproteins from the circulation (FIG. 4F). Loss-of-function variants in ANGPTL3 are associated with reduced serum lipids and a lower risk of CAD (Dewey, Gusarova et al. 2017). […]

[3] = tested on: DIO mice; assay: Diet-induced obese (DIO) mouse model; assay type: in vivo
Excerpt: as §1
(§2) Data are shown as mean±SD. N=5-8 animals per group. *p≤0.05, **p≤0.01, ***p≤0.001, ****p≤0.0001 vs. vehicle, unless otherwise indicated; ^#p≤0.05 pioglitazone vs. vehicle repeated measures two-way ANOVA with Dunnett's multiple comparisons test (FIG. 5A, FIG. 5C, FIG. 5D), Kruskal-Wallis (non-parametric one-way ANOVA) test with Dunn's multiple comparisons test (FIG. 5B, FIG. 5E).
(§3) The efficacy of Compound 21/3 was evaluated in three dysmetabolic rodent models including DIO mice, HFD-fed ZDF rats, and HFD-fed SD rats (FIG. 4 and FIG. 5). Briefly, DIO mice were fed a HFD (60% kcal from fat) for 14 weeks and treated with Compound 21/3 (0.3 and 1 mg/kg once daily by oral gavage) for three weeks, while ZDF and SD rats were fed HFD for two weeks prior to treatment with Compound 21/3 (0.1 and 1 mg/kg once daily by oral gavage) for two or three weeks, respectively.

[4] = tested on: HFD-fed SD rats; assay: HFD-fed Sprague-Dawley (SD) rat model; assay type: in vivo
Excerpt: as §1, §2, §3

[5] = tested on: LXR target genes in the liver; assay: Liver LXR target gene expression 24 hours after a single oral dose in mice; assay type: in vivo; conditions: 24 hours post-dose
Protocol: Data are shown as mean±SD. N=3-8 wells per treatment.
The efficacy of Compound 21/3 and Compound pre-6/3 were evaluated in diet-induced obese (DIO) mouse and rat models.

[6] = tested on: humanized liver chimeric PXB mice; assay: Humanized liver chimeric PXB mouse model; assay type: in vivo; conditions: 1 mg/kg once daily oral, 8 days
Protocol: Data are shown as mean±SD. N=4-5 animals per group. *p≤0.05, **p≤0.01, ***p≤0.001, ****p≤0.0001 Mann-Whitney test.
Since features of cholesterol metabolism differ between rodents and humans, the humanized liver chimeric PXB® mouse model was utilized to further explore the effects of Compound 21/3 on lipid metabolism in a more relevant nonclinical model (Tateno, Yoshizane et al. 2004). Briefly, PXB mice were treated with either vehicle or Compound 21/3 (1 mg/kg once daily by oral gavage) for 8 days. The pharmacokinetics (PK) data from this study are presented herein. […] Specifically, Compound 21/3 reduced the expression of the cholesterol synthesis gene, HMGCR, as well as in genes that reduce the hepatic uptake of LDL-C (PCSK9, IDOL) and conversion of cholesterol to bile acids (CYP7A1). As expected, marked reductions in ANGPTL3 and DNL-associated genes (SREBP1C, ACACA, FASN, SCD1) were also observed.

[7] = tested on: ApoC3 and ANGPTL3; assay: Phase 1 study, MAD cohorts: plasma ApoC3 and ANGPTL3 by ELISA; assay type: in vivo, human; conditions: healthy subjects, Day 1 to Day 14, 12 h postdose
Protocol: Lipid parameters, including apolipoprotein B (apoB), were evaluated by NMR LipoProfile® (Labcorp, Burlington, NC. Plasma ApoC3 and ANGPTL3 were evaluated by ELISA (360biolabs, Melbourne, Australia). Peripheral RCT (reverse cholesterol transport) were evaluated by assessing changes in expression of ABCA1/ABCG1 in PBMCs, predose and 4 hours postdose on Days 1 and 14 (Gnomix, Bedford Park, Australia).
In FIG. 14A to 14C, ApoC3 and ANGPTL3 measured 12 h postdose. RCT assessed predose and 4 h postdose on Day 14.

Row | Structure (SMILES) | glucose utilization by muscle versus vehicle ([1]; end of the clamp) | glucose infusion rate versus vehicle ([1]; four weeks, insulin infusion 8 and 18 mU/kg/min) | hepatic glucose production ([1]; four weeks, more evident at 8 mU/kg/min) | intestinal lipid absorption (uptake of 3H-labelled triolein tracer) [2] | expression of Hmgcr and Cyp7a1 in the liver and Abca1, Abcg5, Abcg8 in the intestine ([3]; DIO mice) | expression of cholesterol efflux transporters Abca1 and Abcg1 in the buffy coat ([3]; DIO mice) | plasma TG levels ([3]; DIO mice) | liver expression of DNL genes (Srebp1c, Fasn, Acaca, Scd1) ([3]; DIO mice, 0.3 and 1 mg/kg once daily oral, three weeks) | maximal reduction of liver TG versus vehicle ([3]; DIO mice, p≤0.001) | reduction of plasma total cholesterol (TC) at end of treatment compared with vehicle ([3]; DIO mice, p≤0.05) | intestinal Srebp1c expression ([3]; DIO mouse, ileum) | liver TC ([3]; dysmetabolic rodent models (FIG. 5B), particularly higher dose groups) | liver biochemistry tests, plasma ALT or AST, compared with vehicle ([3]; dysmetabolic rodent models (FIG. 5C-D)) | liver expression of DNL genes (Srebp1c, Fasn, Acaca, Scd1) ([4]; 0.1 and 1 mg/kg once daily oral) | reduction of plasma TG compared with vehicle ([4]; highest dose 1 mg/kg, p≤0.05) | maximal reduction of liver TG versus vehicle ([4]; p=0.07) | target engagement in the liver (expression of LXR target genes) [5] | hepatic TG and TC content [6] | hepatic expression of genes involved in the metabolism of cholesterol and TG ([6]; relative to vehicle) | plasma ApoC3 and ANGPTL3 [7]
1 | N#Cc1cccc(C#N)c1-c1c(-c2cccc(-c3ccc(C(=O)O)cc3Cl)c2)n(S(=O)(=O)c2ccc(C(F)F)cc2)c2ccc(F)cc12 [pre-6/3] | significantly higher | significantly higher | reduction | reduced |  |  |  |  |  |  |  |  |  |  |  |  |  |  |  | 
2 | N#Cc1cccc(C#N)c1-c1c(-c2cccc(-c3ccc(C(=O)NCC(=O)O)cc3Cl)c2)n(S(=O)(=O)c2ccc(C(F)F)cc2)c2ccc(F)cc12 [Compound 21/3] |  |  |  |  | dose-dependently reduced | did not alter | reduced | dose-dependently reduced | 65% | 49% | dose-dependently reduced | statistically significant increase | not associated with substantial elevations | dose-dependently reduced | 59% | 42% | sustained target engagement | trended to reduce | significantly reduced | reduces
